{"source": "patent US20200093801A1", "about": "“NEW METHODS FOR THE TREATMENT OF MULTIPLE SCLEROSIS” (Novartis AG, priority 2017, published 2020)", "key": {"[1]": {"test_system": "Cuprizone-Induced Demyelination in Mice", "assay": "Cuprizone-induced demyelination in mice, MRI (169 mg/kg)", "assay_type": "in vivo, Mice (C57BL/6J)", "details": "169 mg/kg p.o. qd, 2-week therapeutic treatment after 5 weeks 0.2% cuprizone", "from_the_text": "Studies described below were approved by the Swiss Cantonal Veterinary Authority of Basel City, Switzerland, under the license number 2711. Mice (C57BL/6J) were commercially purchased from Charles River Laboratories, Germany or obtained from Novartis Pharma AG breeding colonies (8-9 weeks old, females). All the animals were allowed to adapt for 7 days prior the start of the experiment and housed in IVC racks (max. 4 mice/XJ Type cage). The animals were given access to food and water ad libitum. Animals were treated with cuprizone for 5 weeks. Cuprizone (Bis(cyclohexanone)oxaldihydrazone, Sigma-Aldrich) was mixed into rodent food pellets (0.2% w/w) by Provimi Kliba AG, Switzerland. Therapeutic treatment of animals after cuprizone was performed for 2 weeks on normal food with 169 mg/kg of BLZ945, qd, p.o. 10 ml/kg. BLZ945 was prepared in vehicle consisting of 0.5% methylcellulose in water and 0.1% Tween-80. Before killing 3 h after last BLZ945 dosing animals were perfused transcardially by phosphate-buffered saline (PBS), brains isolated and fixed in 4% paraformaldehyde (PFA) for 48 h at 4° C.\nMeasurements were performed with a Biospec 70/30 spectrometer (Bruker Medical Systems, Ettlingen, Germany) operating at 7 T. The operational software of the scanner was Paravision 5.1 (Bruker). Images were acquired from anesthetized, spontaneously breathing animals using a mouse brain circularly polarized coil (Bruker, Model 1P T20063V3; internal diameter 23 mm) for radiofrequency excitation and detection; neither cardiac nor respiratory triggering was applied. Following a short period of introduction in a box, animals were maintained in anesthesia with 1.5% isoflurane (Abbott, Cham, Switzerland) in oxygen, administered via a nose cone. During MRI signal acquisitions, animals were placed in prone position in a cradle made of Plexiglas, the body temperature was kept at 37±1° C. using a heating pad, and the respiration was monitored.\nA T2-weighted, two-dimensional multislice RARE (Rapid Acquisition with Relaxation Enhancement) sequence (Hennig et al., 1986) was used for determining the anatomical orientation and for evaluating signal intensities. This was followed by a two-dimensional multislice gradient-recalled FLASH (Fast Low-Angle Shot) acquisition (Haase et al., 1986) for assessment of Magnetization Transfer Ration (MTR). As both sequences had the same anatomical parameters, the choice of the regions-of-interest for evaluations was performed on the RARE images and then transferred to the FLASH images. The parameters of the acquisitions were the following: (a) RARE sequence: effective echo time 80 ms, repetition time 3280 ms, RARE factor 16, 12 averages, field of view 20×18 mm^2, matrix size 213×192, pixel size 0.094×0.094 mm^2, slice thickness 0.5 mm, 15 adjacent slices. […]"}, "[2]": {"assay": "Quantitative determination of BLZ945 in blood and brain (LC-MS-MS)", "assay_type": "in vivo", "details": "mice, p.o., FIG. 11", "experimental": "Sample preparation and analysis was based on a modified protein precipitation procedure followed by liquid chromatographic separation coupled with mass spectrometry for detection. Cerebella were homogenized in a gentleMACS™ Dissociator (Milteniy Biotec, #130-093-235) by adding 20% CH3OH to a final concentration of 0.20 g/mL. Blood-EDTA samples were directly used for further preparation. Calibration, quality control, and recovery control samples were prepared by spiking blank blood and blank brain homogenate with known quantities of BLZ945 (between 0.02 and 62.5 μg/mL). For analyte determination, Labetalol hydrochloride (Sigma-Aldrich, # L1011) was used as generic internal standard (IS). […]\nLC-MS-MS analysis: For quantitative analysis, a 1.5 μl aliquot of each sample, including calibration, quality control, and recovery control samples were injected with a cooled Waters™ Acquity Urbinary sample manager and HPLC system. […] Quantification was based on the compound/IS ratio of the extracted ion chromatograms of the selected mass transitions 399 m/z→242 m/z for BLZ945 and 329 m/z→162 m/z for Labetalol (IS). The unknown sample concentration was calculated using external calibration curves. The Lower Limit Of Quantification (LLOQ) of the method was set to 20 ng/mL for blood, and 100 ng/mL for brain samples, and the recovery from the matrix was 95±2%. […]"}, "[3]": {"details": "normalized to vehicle control (normal food)"}}, "note": "“Also recorded” adds a separate entry of the source.", "data": [{"compound": "CNC(=O)c1cc(Oc2ccc3nc(N[C@@H]4CCCC[C@H]4O)sc3c2)ccn1", "note": "[BLZ945, 4-(2-((1R,2R)-2-hydroxycyclohexylamino)benzothiazol-6-yloxy)-N-methylpicolinamide]", "values": [{"measurement": "Magnetization transfer ratio (MTR) in corpus callosum", "setting": "[1]", "value": "No beneficial effect"}, {"measurement": "MRI contrast in corpus callosum", "setting": "[1]; [3]", "value": "not corpus callosum; also recorded: No beneficial effect"}, {"measurement": "MRI contrast in cortex", "setting": "[1]; [3]", "value": "reduces MRI contrast; also recorded: significant beneficial effect; also recorded: almost normalized to levels of control mice"}, {"measurement": "MRI contrast in striatum", "setting": "[1]; [3]", "value": "reduces MRI contrast; also recorded: significant beneficial effect; also recorded: almost normalized to levels of control mice"}, {"measurement": "Kp at 3 h", "setting": "[2]; C57BL/6J, mouse, brain (cerebellum homogenate) / whole blood (EDTA), po, read-out: brain/blood ratio", "value": "0.3 to 0.6"}, {"measurement": "Blood and brain BLZ945 levels", "setting": "[2]", "value": "dose-dependent"}]}]}
